Assay results from publication PMC3427785 (The Journal of organic chemistry, 2012).
Where two headings read alike, the source gives them in different places.

Assays:
[1] = tested on: HCT116 p53 knockout cells; assay type: cell-based, human; settings: read-out: GI50, p53KO, four days
[2] = tested on: human ovarian cancer 1A9 cells; test: Antiproliferative activity; assay type: cell-based; settings: read-out: GI50, 1A9; ovarian 1A9; four days
[3] = tested on: 1A9-PTX22; test: Antiproliferative activity; assay type: cell-based, human; settings: read-out: GI50, PTX22; paclitaxel-resistant ovarian 1A9-PTX22; four days
[4] = tested on: HEL cells; test: HEL cell growth inhibition; assay type: cell-based, human; settings: read-out: HEL cell effects, cell growth (IC50); concentration required to reduce cell growth by 50%
[5] = tested on: cytomegalovirus (CMV) AD-169 strain; test: Anti-CMV activity; assay type: cell-based; settings: read-out: anti-CMV activity EC50, AD-169 strain
[6] = tested on: cytomegalovirus (CMV) Davis strain; test: Anti-CMV activity; assay type: cell-based; settings: read-out: anti-CMV activity EC50, Davis strain
[7] = tested on: colorectal carcinoma HCT116 cells; test: Antiproliferative activity; assay type: cell-based, human; settings: read-out: GI50, HCT116, four days
[8] = tested on: cytomegalovirus (CMV); test: Anti-CMV activity in HEL cells as summarised in text; assay type: cell-based
[9] = tested on: 1A9-PTX10; test: Antiproliferative activity; assay type: cell-based, human
[10] = tested on: vesicular stomatitis virus (VSV); assay type: cell-based; settings: human embryonic lung (HEL) fibroblast cell cultures
[11] = tested on: vesicular stomatitis virus (VSV); assay type: cell-based; settings: read-out: anti-VSV activity; human cervix carcinoma HeLa cell cultures
[12] = tested on: HeLa and HEL cell cultures
[13] = tested on: green monkey kidney Vero
[14] = tested on: feline kidney CRFK
[15] = tested on: canine kidney MDCK
[16] = read-out: GI50, PTX10, paclitaxel-resistant ovarian 1A9-PTX10, four days

Molecule	GI50 [1] [µM]	GI50 [2] [µM]	GI50 [3] [µM]	IC50 [4] [µM]	EC50 [5] [µM]	EC50 [6] [µM]	GI50 [7] [µM]	activity against cytomegalovirus (in words) [8]	GI50 [9, 16] [µM]	activity against cytomegalovirus (in words) ([8]; HEL cells)	anti-VSV activity (in words) [10]	EC50 [11] [µM]	toxicity observed [12] [µM]	GI50 ([9]; Homo sapiens, 1A9/ptx-10, read-out: GI50, PTX10) [µM]	minimum detectable morphology-altering (cytotoxic) concentration (MCC) [13] [μM]	minimum detectable morphology-altering (cytotoxic) concentration (MCC) [14] [μM]	minimum detectable morphology-altering (cytotoxic) concentration (MCC) [15] [μM]
OC[C@H]1O[C@@H](n2cnc3c(O)nc(-n4cc(-c5ccccc5)nn4)nc32)C[C@@H]1O [Compound 25, 2-[4-(Phenyl)-1,2,3-triazol-1H-yl]-2′-deoxyinosine]	> 50	31	14.8	188	≥ 250	158	> 50	marginal activity	> 50								
2-[4-(Hydroxymethyl)-1,2,3-triazol-1H-yl]inosine [Compound 20]	42.6	20.4	3.53				> 50		> 50								
COc1ccc(-c2cn(-c3nc(O)c4ncn([C@H]5C[C@H](O)[C@@H](CO)O5)c4n3)nn2)cc1 [Compound 26, 2-[4-(4-Methoxyphenyl)-1,2,3-triazol-1H-yl]-2′-deoxyinosine]	> 50	37.2	15.7		> 240	> 240	> 50		> 50								
2-[4-(4-Methylphenyl)-1,2,3-triazol-1H-yl]inosine [Compound 18]	> 50	38	13.4	≥ 240			> 50		> 50	marginal activity							
2-[4-(4-Fluorophenyl)-1,2,3-triazol-1H-yl]inosine [Compound 24]	> 50	34	31				> 50		> 50								
OC[C@H]1O[C@@H](n2cnc3c(O)nc(-n4cc(-c5ccccc5)nn4)nc32)[C@H](O)[C@@H]1O [Compound 17, 2-[4-(Phenyl)-1,2,3-triazol-1H-yl]inosine]	> 50	22.8	4.76				> 50		> 50		could not be confirmed	27 ± 2.4	100 to 240				
OCc1cn(-c2nc(O)c3ncn([C@H]4C[C@H](O)[C@@H](CO)O4)c3n2)nn1 [Compound 27, 2-[4-(Hydroxymethyl)-1,2,3-triazol-1H-yl]-2′-deoxyinosine]	> 50	49.4	32.9		> 290	> 290	> 50		> 50								
CCCCc1cn(-c2nc(O)c3ncn([C@H]4C[C@H](O)[C@@H](CO)O4)c3n2)nn1 [Compound 30, 2-(4-n-Butyl-1,2,3-triazol-1H-yl)-2′-deoxyinosine]	> 50	46.1	26.9		> 270	> 270	> 50		> 50								
2-[4-(4-Methoxyphenyl)-1,2,3-triazol-1H-yl]inosine [Compound 19]	> 50	29.5	8.56	> 230			> 50		> 50								
CC(=O)O[C@H]1C(=O)[C@@]2(C)[C@H]([C@H](OC(=O)c3ccccc3)[C@]3(O)C[C@H](OC(=O)[C@H](O)[C@@H](NC(=O)c4ccccc4)c4ccccc4)C(C)=C1C3(C)C)[C@]1(OC(C)=O)CO[C@@H]1C[C@@H]2O [paclitaxel, reference compound]														0.079			
2-[4-(Ferrocenyl)-1,2,3-triazol-1H-yl]inosine [Compound 22]	> 50	29.7	12.9	123			> 50		> 50	marginal activity							
OC[C@H]1O[C@@H](n2cnc3c(NCc4ccccc4)nc(-n4cc(-c5ccccc5)nn4)nc32)[C@H](O)[C@@H]1O [Compound 35, 6-(N-Benzyl)-2-[4-(phenyl)-1,2,3-triazol-1H-yl]adenosine]	> 50	5	24.5				43.6		> 50								
2-[4-(N-Phthalimidomethyl)-1,2,3-triazol-1H-yl]inosine [Compound 21]	> 50	6.32	14.1	> 200			> 50		> 50								
O=C1c2ccccc2C(=O)N1Cc1cn(-c2nc(O)c3ncn([C@H]4C[C@H](O)[C@@H](CO)O4)c3n2)nn1 [Compound 28, 2-[4-(N-Phthalimidomethyl)-1,2,3-triazol-1H-yl]-2′-deoxyinosine]	> 50	49.6	32.2		> 210	> 210	> 50		> 50								
6-(Morpholin-4-yl)-2-(4-phenyl-1,2,3-triazol-1H-yl)-9-(β-D-ribofuranosyl)purine [Compound 34]	10.4	0.18	0.95				3.7		11.7						210	83	8.3
OC[C@H]1O[C@@H](n2cnc3c(O)nc(-n4cc(-[c-]5cccc5)nn4)nc32)C[C@@H]1O.[Fe+2].c1cc[cH-]c1 [Compound 29, 2-[4-(Ferrocenyl)-1,2,3-triazol-1H-yl]-2′-deoxyinosine]	> 50	41.6	18	> 200	≥ 200	≥ 200	> 50		> 50								
2-(4-n-Butyl-1,2,3-triazol-1H-yl)inosine [Compound 23]	> 50	37	28.1	> 250			> 50		> 50	somewhat more pronounced							
